The target of experiment [1] is T1, Amine oxidase [flavin-containing] A (Mus musculus, UniProt Q64133).
T1 sequence (Q64133 whole entry): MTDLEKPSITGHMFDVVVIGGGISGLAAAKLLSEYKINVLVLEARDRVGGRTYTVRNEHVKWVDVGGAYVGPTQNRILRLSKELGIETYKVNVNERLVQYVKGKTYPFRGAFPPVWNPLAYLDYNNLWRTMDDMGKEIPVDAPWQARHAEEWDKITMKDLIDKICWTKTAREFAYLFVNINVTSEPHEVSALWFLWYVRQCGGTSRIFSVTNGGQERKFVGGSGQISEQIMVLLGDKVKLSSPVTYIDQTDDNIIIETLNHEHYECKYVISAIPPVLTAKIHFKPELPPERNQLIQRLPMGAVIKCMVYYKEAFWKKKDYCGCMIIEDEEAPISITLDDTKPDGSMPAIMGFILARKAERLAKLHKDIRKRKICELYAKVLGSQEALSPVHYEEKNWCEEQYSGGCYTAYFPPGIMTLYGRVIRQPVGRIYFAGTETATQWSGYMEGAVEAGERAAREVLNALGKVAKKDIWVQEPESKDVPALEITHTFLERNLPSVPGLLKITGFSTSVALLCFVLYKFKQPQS
Description: Displacement of [18F]-FEH from MAO-A in mouse brain homogenate incubated for 60 mins by imaging analysis. The experiment is classed as tissue-based. A general note: Displacement assays read how much labelled ligand stays bound in the presence of the test substance.

Experiment [2] deals with Microtubule-associated protein tau (Homo sapiens, UniProt P10636). Description: Displacement of [3H]PI-2620 from Tau in human brain homogenate incubated for 60 mins by radioligand binding assay. The experiment is classed as tissue-based.
Chain of Microtubule-associated protein tau (P10636 whole entry): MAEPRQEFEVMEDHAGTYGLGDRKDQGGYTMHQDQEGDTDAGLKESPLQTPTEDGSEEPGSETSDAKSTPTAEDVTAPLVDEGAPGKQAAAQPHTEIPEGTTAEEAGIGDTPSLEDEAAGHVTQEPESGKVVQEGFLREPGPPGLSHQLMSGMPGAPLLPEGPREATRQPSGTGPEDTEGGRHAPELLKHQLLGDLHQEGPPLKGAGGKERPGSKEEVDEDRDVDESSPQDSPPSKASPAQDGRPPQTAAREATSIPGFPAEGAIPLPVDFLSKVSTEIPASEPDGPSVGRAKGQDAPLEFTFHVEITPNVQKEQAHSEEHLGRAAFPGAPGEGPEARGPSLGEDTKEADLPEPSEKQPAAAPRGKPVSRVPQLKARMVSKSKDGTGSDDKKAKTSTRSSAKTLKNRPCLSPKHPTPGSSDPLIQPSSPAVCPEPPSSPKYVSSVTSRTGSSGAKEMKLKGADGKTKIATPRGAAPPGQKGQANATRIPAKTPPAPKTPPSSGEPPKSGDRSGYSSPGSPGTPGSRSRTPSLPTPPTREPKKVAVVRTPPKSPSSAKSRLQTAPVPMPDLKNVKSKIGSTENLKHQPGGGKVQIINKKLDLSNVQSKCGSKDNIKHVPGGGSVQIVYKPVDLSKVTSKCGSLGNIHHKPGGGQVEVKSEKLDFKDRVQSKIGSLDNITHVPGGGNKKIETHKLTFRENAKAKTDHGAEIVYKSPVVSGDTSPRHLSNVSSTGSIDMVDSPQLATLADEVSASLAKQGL

Regarding `Fc1cc(-c2cc3[nH]c4ccncc4c3cn2)ccn1`, the IC50 in experiment [1] was over 1000 nM; in experiment [2], 82 nM.

In experiment [2], `Fc1cc(-c2ccc3c(n2)[nH]c2cccnc23)ccn1` registered an IC50 of 260 nM.

The molecule `Fc1cc(-c2ccc3c(n2)[nH]c2ncccc23)ccn1` yielded an IC50 in experiment [2] of 310 nM.

In the case of `Fc1ncccc1-c1ccc2c(n1)[nH]c1ccncc12`, the IC50 in experiment [1] was over 1000 nM; in experiment [2], 15.5 nM.

`Fc1ncccc1-c1cnc2c(c1)[nH]c1ccncc12`: the IC50 was over 1000 nM in experiment [1] and 344 nM in experiment [2].

Consider `Fc1ncccc1-c1ccc2c(c1)[nH]c1ccncc12`, for which the concentration for half-maximal inhibition (IC50) was found to be 7.8 nM in experiment [1] and 3.5 nM in experiment [2].

`Fc1ncccc1-c1ccc2c(n1)[nH]c1cnccc12`: the IC50 in experiment [2] stood at 70 nM. That is a double-digit nanomolar value.

In experiment [2], `Fc1cc(-c2ccc3c(c2)[nH]c2ccncc23)ccn1` returned an IC50 of 3.1 nM.

Regarding `Fc1cc(-c2ccc3c(n2)[nH]c2cnccc23)ccn1`, the IC50 in experiment [2] is 36 nM.

Turning to `Fc1cc(-c2ccc3c(n2)[nH]c2ccncc23)ccn1`, the results for the 50% inhibitory concentration (IC50) in experiment [1] and in experiment [2] were over 1000 nM and 4.9 nM, respectively.

On to `Fc1cc(-c2cnc3c(c2)[nH]c2ccncc23)ccn1`, for which the concentration for half-maximal inhibition (IC50) in experiment [1] is over 1000 nM; in experiment [2], 116 nM.

For the molecule `Fc1cc(-c2nc3[nH]c4ccncc4c3s2)ccn1`, the IC50 was over 1000 nM in experiment [1] and 18 nM in experiment [2].

In experiment [2], `Fc1ncccc1-c1ccc2c(n1)[nH]c1ncccc12` yielded a half-inhibitory concentration (IC50) of over 1000 nM.

Take `Fc1ncccc1-c1cc2[nH]c3ccncc3c2cn1`: the results for the IC50 in experiment [1] and in experiment [2] were over 1000 nM and 732 nM, respectively.

In experiment [2], `Fc1ncccc1-c1ccc2c(n1)[nH]c1cccnc12` had an IC50 of 559 nM.

Broadly, the IC50 is the point on the concentration scale where inhibition reaches its midpoint. A low value points to greater potency in that assay.

The values are drawn from ChEMBL document CHEMBL5053553, “Structure-activity relationship around PI-2620 highlights the importance of the nitrogen atom position in the tricyclic core” (Bioorg Med Chem, 2021).
